Four compounds from publication PMC12448936, “Odorant Receptors Mediating Avoidance of Toxic Mustard Oils in Drosophila melanogaster Are Expanded in Herbivorous Relatives” (Molecular Biology and Evolution, 2025) can be followed below.

Where two headings read alike, the source gives them in different places. Where only a bound is given, the exact number is not on record here.

Experiment [1] addresses T1, S. flava Or42a3 (Scaptomyza flava, UniProt Z9ZJ76RJY6).
T1 construct: full coding region (UTRs removed) in UAST-attB, attP40 site; D. melanogaster at1 OSNs (Or67d null), host Orco; with Odorant receptor coreceptor (Drosophila melanogaster, endogenous in host neuron)
T1 sequence (Z9ZJ76RJY6 1-407): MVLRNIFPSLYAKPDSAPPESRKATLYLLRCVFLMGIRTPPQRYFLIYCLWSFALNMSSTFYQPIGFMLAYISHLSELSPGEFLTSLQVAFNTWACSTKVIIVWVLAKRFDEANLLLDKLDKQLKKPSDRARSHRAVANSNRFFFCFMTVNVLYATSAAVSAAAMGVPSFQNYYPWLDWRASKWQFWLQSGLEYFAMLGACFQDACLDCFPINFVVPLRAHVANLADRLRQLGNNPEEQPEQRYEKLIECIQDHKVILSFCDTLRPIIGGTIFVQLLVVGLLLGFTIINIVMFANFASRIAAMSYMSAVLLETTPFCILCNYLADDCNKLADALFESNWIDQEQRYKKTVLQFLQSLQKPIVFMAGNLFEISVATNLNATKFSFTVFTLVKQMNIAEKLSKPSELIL
T1 sequence (Q9VNB5 1-486 partner): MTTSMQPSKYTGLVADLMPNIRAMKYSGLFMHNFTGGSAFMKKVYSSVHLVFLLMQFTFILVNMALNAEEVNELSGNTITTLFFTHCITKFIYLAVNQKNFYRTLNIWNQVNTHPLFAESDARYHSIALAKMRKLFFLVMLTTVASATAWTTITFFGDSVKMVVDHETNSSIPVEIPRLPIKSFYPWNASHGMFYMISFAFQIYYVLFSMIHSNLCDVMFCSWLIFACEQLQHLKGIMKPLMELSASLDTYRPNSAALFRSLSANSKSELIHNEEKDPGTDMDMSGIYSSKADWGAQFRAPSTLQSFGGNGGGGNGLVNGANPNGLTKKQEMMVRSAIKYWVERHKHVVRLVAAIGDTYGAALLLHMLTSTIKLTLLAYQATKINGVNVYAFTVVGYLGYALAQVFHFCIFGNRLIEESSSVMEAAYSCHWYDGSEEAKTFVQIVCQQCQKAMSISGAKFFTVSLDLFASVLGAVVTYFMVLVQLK
Put plainly: single sensillum recording, at1 empty neuron. It counts as cell-based.

For the next experiment, the target named is T2, S. pallida Or42a2 (Scaptomyza pallida, UniProt Z9QWX1R862).
T2 construct: full coding region in UAST-attB, attP40 site; D. melanogaster at1 OSNs (Or67d null), host Orco; with Odorant receptor coreceptor (Drosophila melanogaster, endogenous in host neuron)
T2 sequence (Z9QWX1R862 1-406): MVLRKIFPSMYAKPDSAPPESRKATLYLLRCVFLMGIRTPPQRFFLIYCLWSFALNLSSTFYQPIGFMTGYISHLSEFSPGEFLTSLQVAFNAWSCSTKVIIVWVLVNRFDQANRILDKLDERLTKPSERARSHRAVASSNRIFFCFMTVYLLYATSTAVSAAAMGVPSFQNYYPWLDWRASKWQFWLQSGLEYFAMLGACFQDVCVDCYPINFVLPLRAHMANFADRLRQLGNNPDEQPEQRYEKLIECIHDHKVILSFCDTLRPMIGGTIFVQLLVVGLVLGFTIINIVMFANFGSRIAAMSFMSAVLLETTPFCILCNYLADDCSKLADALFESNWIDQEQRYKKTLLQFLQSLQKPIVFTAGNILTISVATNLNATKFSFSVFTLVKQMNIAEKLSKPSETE
T2 sequence (Q9VNB5 1-486 partner): T1 sequence (Q9VNB5 1-486 partner)
Put plainly: single sensillum recording, at1 empty neuron. To be noted: bound given for three odorants together. It counts as cell-based.

For a further experiment, the target named is T3, S. flava Or42a4 (Scaptomyza flava, UniProt Z9LG74I6Y6).
T3 construct: full coding region (UTRs removed) in UAST-attB, attP40 site; D. melanogaster at1 OSNs (Or67d null), host Orco; with Odorant receptor coreceptor (Drosophila melanogaster, endogenous in host neuron)
T3 sequence (Z9LG74I6Y6 1-404): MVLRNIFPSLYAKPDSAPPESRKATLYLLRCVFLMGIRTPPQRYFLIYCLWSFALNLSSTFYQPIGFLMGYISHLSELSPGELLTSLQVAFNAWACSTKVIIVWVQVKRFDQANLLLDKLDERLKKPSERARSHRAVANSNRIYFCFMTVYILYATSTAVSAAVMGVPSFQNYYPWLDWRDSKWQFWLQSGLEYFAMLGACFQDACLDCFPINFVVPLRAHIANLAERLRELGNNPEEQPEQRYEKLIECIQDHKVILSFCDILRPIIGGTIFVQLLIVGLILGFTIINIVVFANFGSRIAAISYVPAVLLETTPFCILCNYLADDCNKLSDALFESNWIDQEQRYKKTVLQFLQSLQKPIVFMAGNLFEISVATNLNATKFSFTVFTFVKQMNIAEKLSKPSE
T3 sequence (Q9VNB5 1-486 partner): T1 sequence (Q9VNB5 1-486 partner)
Put plainly: single sensillum recording, at1 empty neuron. It counts as cell-based.

Another experiment deals with T4, D. melanogaster Or42a (Drosophila melanogaster, UniProt Q9V9I2).
T4 construct: full length UAS transgene in D. melanogaster at1 OSNs (Or67d-Gal4 null background), endogenous Orco; EC50 from native pb1a OSNs; with Odorant receptor coreceptor (Drosophila melanogaster)
T4 sequence (Q9V9I2 1-406): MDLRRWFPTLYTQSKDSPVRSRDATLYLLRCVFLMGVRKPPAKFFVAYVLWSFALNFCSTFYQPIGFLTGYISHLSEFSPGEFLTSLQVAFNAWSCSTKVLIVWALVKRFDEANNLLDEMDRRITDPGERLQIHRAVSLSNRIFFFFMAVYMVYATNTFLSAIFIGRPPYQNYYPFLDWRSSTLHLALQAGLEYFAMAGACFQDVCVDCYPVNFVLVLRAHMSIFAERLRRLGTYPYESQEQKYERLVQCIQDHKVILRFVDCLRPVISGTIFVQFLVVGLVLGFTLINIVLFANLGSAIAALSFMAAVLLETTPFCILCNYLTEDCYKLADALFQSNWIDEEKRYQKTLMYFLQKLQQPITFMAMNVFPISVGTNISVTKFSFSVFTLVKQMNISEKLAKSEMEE
T4 sequence (Q9VNB5 1-486 partner): T1 sequence (Q9VNB5 1-486 partner)
Put plainly: single sensillum recording, at1 empty neuron. Type of experiment: cell-based. Conditions: bound given for three odorants together.

Experiment [2] has as its system S. flava Or42a3. Conditions: heterozygous UAS transgene, Fig. 8 legend prints S301P.
A further experiment concerns the target T5, S. flava Or42a2 (Scaptomyza flava, UniProt Z9B9G2NIU8).
T5 construct: full coding region (UTRs removed) in UAST-attB, attP40 site; D. melanogaster at1 OSNs (Or67d null), host Orco; with Odorant receptor coreceptor (Drosophila melanogaster, endogenous in host neuron)
T5 sequence (Z9B9G2NIU8 1-404): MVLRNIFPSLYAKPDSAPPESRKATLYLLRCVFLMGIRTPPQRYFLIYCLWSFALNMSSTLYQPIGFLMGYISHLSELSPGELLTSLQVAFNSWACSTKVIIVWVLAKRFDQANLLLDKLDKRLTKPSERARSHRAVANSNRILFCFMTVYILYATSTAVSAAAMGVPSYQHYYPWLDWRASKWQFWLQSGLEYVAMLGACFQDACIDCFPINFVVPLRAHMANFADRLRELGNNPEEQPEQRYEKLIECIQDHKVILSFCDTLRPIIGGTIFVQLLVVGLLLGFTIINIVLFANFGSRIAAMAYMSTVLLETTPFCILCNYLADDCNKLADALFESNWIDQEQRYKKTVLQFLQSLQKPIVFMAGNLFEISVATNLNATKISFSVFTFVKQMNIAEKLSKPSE
T5 sequence (Q9VNB5 1-486 partner): T1 sequence (Q9VNB5 1-486 partner)
Put plainly: single sensillum recording, at1 empty neuron. It counts as cell-based. To be noted: volatile stimulus 1:100 vol/vol in mineral oil.

The mark [3] stands for this setting: volatile stimulus 1:100 vol/vol in mineral oil.
Setting [4] is: volatile stimulus 1:100 vol/vol in DMSO.

Regarding `CCC/C=C/C=O` [trans-2-hexenal], the spikes/s entry at S. flava Or42a3 [1] (setting [3]) was “S. flava Or42a3 or S. flava Or42a4 were also very sensitive to AITC and trans-2-hexenal”; at S. pallida Or42a2 (setting [3]) it was more than 96 spikes/s; at S. flava Or42a4 (setting [3]) it was “S. flava Or42a3 or S. flava Or42a4 were also very sensitive to AITC and trans-2-hexenal”; at D. melanogaster Or42a (setting [3]), more than 79 spikes/s.

As for `CCC1CCC(=O)O1` (stereo not drawn) [γ-hexalactone], the spikes/s entry on S. flava Or42a3 [1] (setting [4]) was “S. flava Or42a3 showed a moderate response to γ-hexalactone”; in the experiment on S. flava Or42a3 [2] (setting [4]), “at1 population responses to BITC (white bars) and to γ-hexalactone (gray bars)”; on S. pallida Or42a2 (setting [4]), more than 96 spikes/s; on S. flava Or42a4 (setting [4]), less than 10 spikes/s; on D. melanogaster Or42a (setting [4]) it was more than 79 spikes/s.

Regarding `C=CCN=C=S` [AITC, allyl isothiocyanate], the spikes/s result at S. flava Or42a2 is “S. flava Or42a2 was only activated by AITC”; on S. flava Or42a3 [1] (setting [3]), “S. flava Or42a3 or S. flava Or42a4 were also very sensitive to AITC and trans-2-hexenal”; on S. pallida Or42a2 (setting [3]), more than 96 spikes/s; on S. flava Or42a4 (setting [3]), “S. flava Or42a3 or S. flava Or42a4 were also very sensitive to AITC and trans-2-hexenal”; at D. melanogaster Or42a (setting [3]) it was more than 79 spikes/s.

Consider `CCCCN=C=S` [BITC, butyl ITC], for which the spikes/s result in the experiment with S. flava Or42a3 [2] (setting [3]) was “The A181D S307P variant and the two S. flava paralogs showed similar moderate responses to BITC”.
